Assay results reported in PubChem BioAssay (NCI).
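Five concentrations, 48 hours, 96-well plates. At the GI50, growth is halved. TGI marks complete inhibition of growth.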

Assays:
Assay in all cases: DTP human tumour cell line panel, 48 h
NCI-H522 lung = system: NCI-H522 lung
KM12 colon = system: KM12 colon
HS 578T breast = system: HS 578T breast
SR leukemia = system: SR leukemia
OVCAR-5 ovarian = system: OVCAR-5 ovarian
SNB-75 CNS = system: SNB-75 CNS
OVCAR-3 ovarian = system: OVCAR-3 ovarian
HCT-116 colon = system: HCT-116 colon
MALME-3M melanoma = system: MALME-3M melanoma
NCI-H23 lung = system: NCI-H23 lung

CC1SC(c2c(Cl)cccc2Cl)N(NC(=O)C(O)c2ccccc2)C1=O (stereo not drawn)
GI50 (NCI-H522 lung): 60.9 µM
TGI (NCI-H522 lung): > 100 µM
GI50 (KM12 colon): 44.1 µM
TGI (KM12 colon): > 100 µM
GI50 (HS 578T breast): > 100 µM
TGI (HS 578T breast): > 100 µM
GI50 (SR leukemia): 34.9 µM
TGI (SR leukemia): > 100 µM
GI50 (OVCAR-5 ovarian): > 100 µM
TGI (OVCAR-5 ovarian): > 100 µM
GI50 (SNB-75 CNS): 46.9 µM
TGI (SNB-75 CNS): > 100 µM
GI50 (OVCAR-3 ovarian): 54.1 µM
TGI (OVCAR-3 ovarian): > 100 µM
GI50 (HCT-116 colon): 56 µM
TGI (HCT-116 colon): > 100 µM

CC(=O)c1cc2c(c3ccsc13)-c1ccccc1CC2
GI50 (NCI-H522 lung): 19.7 µM
TGI (NCI-H522 lung): 79.1 µM
GI50 (KM12 colon): 12.5 µM
TGI (KM12 colon): 54.9 µM
GI50 (HS 578T breast): 2.17 µM
TGI (HS 578T breast): 44.6 µM
GI50 (MALME-3M melanoma): 15.7 µM
TGI (MALME-3M melanoma): 55.2 µM
GI50 (OVCAR-5 ovarian): 39.4 µM
TGI (OVCAR-5 ovarian): > 100 µM
GI50 (SNB-75 CNS): > 100 µM
TGI (SNB-75 CNS): > 100 µM
GI50 (OVCAR-3 ovarian): 25.4 µM
TGI (OVCAR-3 ovarian): > 100 µM
GI50 (HCT-116 colon): 20.3 µM
TGI (HCT-116 colon): > 100 µM
GI50 (NCI-H23 lung): 28.1 µM
TGI (NCI-H23 lung): 95.6 µM

C/C1=C\C/C=C(\C)[C@H]2CC(CC/C(C)=C/CC1)[C@](C)(C=O)O2
GI50 (NCI-H522 lung): 59.6 µM
TGI (NCI-H522 lung): > 100 µM
GI50 (KM12 colon): > 100 µM
TGI (KM12 colon): > 100 µM
GI50 (HS 578T breast): > 100 µM
TGI (HS 578T breast): > 100 µM
GI50 (SR leukemia): 16.3 µM
TGI (SR leukemia): 35.5 µM
GI50 (OVCAR-5 ovarian): > 100 µM
TGI (OVCAR-5 ovarian): > 100 µM
GI50 (SNB-75 CNS): > 100 µM
TGI (SNB-75 CNS): > 100 µM
GI50 (OVCAR-3 ovarian): 76.4 µM
TGI (OVCAR-3 ovarian): > 100 µM
GI50 (HCT-116 colon): 6.03 µM
TGI (HCT-116 colon): > 100 µM
GI50 (NCI-H23 lung): > 100 µM
TGI (NCI-H23 lung): > 100 µM

CO[C@@]12C[C@H]3[C@@H]([C@@H](O)[C@@H](OC(=O)/C=C/c4ccccc4)[C@@]4(O)C(C)(C)CCC[C@]34C)[C@@H](C)C1=CC(=O)O2
GI50 (NCI-H522 lung): 35.1 µM
TGI (NCI-H522 lung): > 100 µM
GI50 (KM12 colon): 6.74 µM
TGI (KM12 colon): 28.6 µM
GI50 (HS 578T breast): 7.8 µM
TGI (HS 578T breast): 29.3 µM
GI50 (SR leukemia): > 100 µM
TGI (SR leukemia): > 100 µM
GI50 (OVCAR-5 ovarian): 17.1 µM
TGI (OVCAR-5 ovarian): 48 µM
GI50 (SNB-75 CNS): 0.382 µM
TGI (SNB-75 CNS): 2.46 µM
GI50 (OVCAR-3 ovarian): 2.01 µM
TGI (OVCAR-3 ovarian): 11.6 µM
GI50 (HCT-116 colon): 8.8 µM
TGI (HCT-116 colon): > 100 µM
GI50 (NCI-H23 lung): 13.5 µM
TGI (NCI-H23 lung): 42.2 µM

O=C(O)/C(=C\c1ccccc1Cl)S(=O)(=O)c1ccccc1
TGI (NCI-H522 lung): > 100 µM
TGI (KM12 colon): > 100 µM
TGI (MALME-3M melanoma): > 100 µM
TGI (OVCAR-5 ovarian): > 100 µM
TGI (SNB-75 CNS): > 100 µM
TGI (HCT-116 colon): > 100 µM

N#C/C(N)=C(\C#N)N=Cc1csc2ccccc12
GI50 (NCI-H522 lung): 28.9 µM
TGI (NCI-H522 lung): > 100 µM
GI50 (KM12 colon): > 100 µM
TGI (KM12 colon): > 100 µM
GI50 (HS 578T breast): 13.1 µM
TGI (HS 578T breast): 58.9 µM
GI50 (MALME-3M melanoma): 50.9 µM
TGI (MALME-3M melanoma): > 100 µM
GI50 (OVCAR-5 ovarian): 67.1 µM
TGI (OVCAR-5 ovarian): > 100 µM
GI50 (SNB-75 CNS): 12.5 µM
TGI (SNB-75 CNS): 31.2 µM
GI50 (OVCAR-3 ovarian): 19.1 µM
TGI (OVCAR-3 ovarian): 47.8 µM
GI50 (HCT-116 colon): 26.8 µM
TGI (HCT-116 colon): 83.6 µM
GI50 (NCI-H23 lung): 11.5 µM
TGI (NCI-H23 lung): 51.2 µM

N[C@@H]1CCCC[C@@H]1N.O=C([O-])CN(CP(=O)([O-])[O-])CP(=O)([O-])[O-].[Pt+2]
GI50 (NCI-H522 lung): > 100 µM
TGI (NCI-H522 lung): > 100 µM
GI50 (KM12 colon): > 100 µM
TGI (KM12 colon): > 100 µM
GI50 (MALME-3M melanoma): > 100 µM
TGI (MALME-3M melanoma): > 100 µM
GI50 (SNB-75 CNS): > 100 µM
TGI (SNB-75 CNS): > 100 µM
GI50 (OVCAR-3 ovarian): > 100 µM
TGI (OVCAR-3 ovarian): > 100 µM
GI50 (HCT-116 colon): > 100 µM
TGI (HCT-116 colon): > 100 µM
GI50 (NCI-H23 lung): > 100 µM
TGI (NCI-H23 lung): > 100 µM

COc1cc2c([C@@H](OC(=O)c3ccccc3)c3ccc4c(c3)OCO4)nccc2c(OC)c1OC
TGI (NCI-H522 lung): > 100 µM
TGI (SR leukemia): > 100 µM
TGI (MALME-3M melanoma): > 100 µM
TGI (OVCAR-5 ovarian): > 100 µM
TGI (SNB-75 CNS): > 100 µM
TGI (OVCAR-3 ovarian): > 100 µM
TGI (HCT-116 colon): > 100 µM
TGI (NCI-H23 lung): > 100 µM

COC(=O)/C(=C/c1ccc(OC)cc1)NC(=O)c1ccccc1
TGI (KM12 colon): > 100 µM
TGI (SR leukemia): > 100 µM
TGI (MALME-3M melanoma): > 100 µM
TGI (OVCAR-5 ovarian): > 100 µM
TGI (SNB-75 CNS): > 100 µM
TGI (HCT-116 colon): > 100 µM
TGI (NCI-H23 lung): > 100 µM

Cc1[nH]nc2c1C(=O)C=C(N(CCO)c1ccccc1)C2=O
TGI (NCI-H522 lung): > 100 µM
TGI (KM12 colon): > 100 µM
TGI (MALME-3M melanoma): > 100 µM
TGI (SNB-75 CNS): > 100 µM
TGI (OVCAR-3 ovarian): > 100 µM
TGI (HCT-116 colon): > 100 µM
TGI (NCI-H23 lung): > 100 µM

O=C(NNS(=O)(=O)c1ccc(F)cc1)c1cccnc1Nc1ccc(Cl)cc1Cl
GI50 (KM12 colon): 23 µM
TGI (KM12 colon): 48.5 µM
GI50 (HS 578T breast): 27.9 µM
TGI (HS 578T breast): > 100 µM
GI50 (SR leukemia): 22.9 µM
TGI (SR leukemia): 67.6 µM
GI50 (MALME-3M melanoma): 34.7 µM
TGI (MALME-3M melanoma): > 100 µM
GI50 (OVCAR-5 ovarian): 52.2 µM
TGI (OVCAR-5 ovarian): > 100 µM
GI50 (SNB-75 CNS): 25.5 µM
TGI (SNB-75 CNS): > 100 µM
GI50 (OVCAR-3 ovarian): 29.7 µM
TGI (OVCAR-3 ovarian): 94.5 µM
GI50 (HCT-116 colon): 30.3 µM
TGI (HCT-116 colon): > 100 µM
GI50 (NCI-H23 lung): 36.5 µM
TGI (NCI-H23 lung): > 100 µM

Cc1ccc(NC(=O)C2C(=O)N(c3ccc(C)c(C)c3)C(=O)/C2=N\NC(N)=S)cc1C (stereo not drawn)
TGI (NCI-H522 lung): > 100 µM
TGI (KM12 colon): > 100 µM
TGI (SR leukemia): > 100 µM
TGI (MALME-3M melanoma): > 100 µM
TGI (SNB-75 CNS): > 100 µM
TGI (OVCAR-3 ovarian): > 100 µM
TGI (HCT-116 colon): > 100 µM
TGI (NCI-H23 lung): > 100 µM

CCCCCC(O)(CCCCC)CCCCCCCCC1=C(O)c2[nH]c(=O)ccc2C(=O)C1=O
TGI (NCI-H522 lung): 20.8 µM
TGI (KM12 colon): 23.6 µM
TGI (SR leukemia): 96.7 µM
TGI (MALME-3M melanoma): 13.9 µM
TGI (OVCAR-5 ovarian): 35 µM
TGI (SNB-75 CNS): 32.3 µM
TGI (OVCAR-3 ovarian): 16.2 µM
TGI (HCT-116 colon): 16.4 µM
TGI (NCI-H23 lung): 7.73 µM

Cc1nc2cc(Nc3nc(Nc4ccc(F)cc4)nc(N4CCN(C)CC4)n3)ccc2n1Cc1ccccc1
GI50 (NCI-H522 lung): 1.6 µM
TGI (NCI-H522 lung): 3.21 µM
GI50 (KM12 colon): 1.73 µM
TGI (KM12 colon): 3.25 µM
GI50 (SR leukemia): 0.266 µM
TGI (SR leukemia): 0.806 µM
GI50 (OVCAR-5 ovarian): 2 µM
TGI (OVCAR-5 ovarian): 4.7 µM
GI50 (SNB-75 CNS): 1.4 µM
TGI (SNB-75 CNS): 2.79 µM
GI50 (OVCAR-3 ovarian): 1.84 µM
TGI (OVCAR-3 ovarian): 3.51 µM
GI50 (HCT-116 colon): 1.33 µM
TGI (HCT-116 colon): 3.06 µM
GI50 (NCI-H23 lung): 2 µM
TGI (NCI-H23 lung): 4.5 µM

COc1ccc(C(=O)COc2cccc(/C=C3\CSc4ccc(Cl)cc4C3=O)c2)cc1
GI50 (NCI-H522 lung): 2.07 µM
TGI (NCI-H522 lung): 4.9 µM
GI50 (KM12 colon): 2.28 µM
TGI (KM12 colon): 5.57 µM
GI50 (HS 578T breast): 3.55 µM
TGI (HS 578T breast): 31.7 µM
GI50 (MALME-3M melanoma): 11.6 µM
TGI (MALME-3M melanoma): 32 µM
GI50 (OVCAR-5 ovarian): 17 µM
TGI (OVCAR-5 ovarian): 34.2 µM
GI50 (SNB-75 CNS): 16.5 µM
TGI (SNB-75 CNS): 37.2 µM
GI50 (OVCAR-3 ovarian): 8.86 µM
TGI (OVCAR-3 ovarian): 21.2 µM
GI50 (HCT-116 colon): 1.94 µM
TGI (HCT-116 colon): 4.3 µM
GI50 (NCI-H23 lung): 14.2 µM
TGI (NCI-H23 lung): 35 µM

CCCCCCNc1nc(N2CCOCC2)c2[nH]c(NCCCCCC)nc2n1
GI50 (NCI-H522 lung): 1.58 µM
TGI (NCI-H522 lung): 3.37 µM
GI50 (KM12 colon): 1.67 µM
TGI (KM12 colon): 3.06 µM
GI50 (HS 578T breast): 1.37 µM
TGI (HS 578T breast): 3.16 µM
GI50 (OVCAR-5 ovarian): 1.61 µM
TGI (OVCAR-5 ovarian): 2.96 µM
GI50 (SNB-75 CNS): 1.46 µM
TGI (SNB-75 CNS): 2.77 µM
GI50 (OVCAR-3 ovarian): 1.76 µM
TGI (OVCAR-3 ovarian): 3.14 µM
GI50 (HCT-116 colon): 1.83 µM
TGI (HCT-116 colon): 3.27 µM
GI50 (NCI-H23 lung): 1.35 µM
TGI (NCI-H23 lung): 2.63 µM

CC1(C)CC(=O)C(=[N+]=[N-])C(=O)C1
TGI (NCI-H522 lung): > 100 µM
TGI (KM12 colon): > 100 µM
TGI (MALME-3M melanoma): > 100 µM
TGI (OVCAR-5 ovarian): > 100 µM
TGI (SNB-75 CNS): > 100 µM
TGI (OVCAR-3 ovarian): > 100 µM
TGI (HCT-116 colon): > 100 µM
TGI (NCI-H23 lung): > 100 µM
